{"source": "patent US20150011423A1", "about": "“MEANS AND METHODS FOR ASSESSING KIDNEY TOXICITY” (BASF SE, priority 2011, published 2015)", "tested_on": "rats", "assay": "28-day repeated dose study in rats with mass spectrometry-based plasma metabolite profiling (GC-MS, LC-MS, SPE-LC-MS); treatment ratios versus control", "conditions": "plasma; for Glycerol, lipid fraction, treatment ratio versus control / Linoleic acid (C18:cis[9,12]2), treatment ratio versus control / Lysophosphatidylcholine (C18:2), treatment ratio versus control / Phosphatidylcholine (C16:0, C16:0), treatment ratio versus control / Phosphatidylcholine (C16:0, C18:2), treatment ratio versus control / Phosphatidylcholine (C16:0, C20:5), treatment ratio versus control / Phosphatidylcholine (C16:1, C18:2), treatment ratio versus control / Phosphatidylcholine (C18:0, C18:1), treatment ratio versus control / Phosphatidylcholine (C18:1, C18:2), treatment ratio versus control / gamma-Linolenic acid (C18:cis[6,9,12]3), treatment ratio versus control / Arginine, treatment ratio versus control / Indole-3-lactic acid, treatment ratio versus control / Ketoleucine, treatment ratio versus control / Proline, treatment ratio versus control / Tryptophan, treatment ratio versus control / trans-4-Hydroxyproline, treatment ratio versus control: female rats; for Glycerol, lipid fraction, treatment ratio versus control / Linoleic acid (C18:cis[9,12]2), treatment ratio versus control / Lysophosphatidylcholine (C18:2), treatment ratio versus control / Phosphatidylcholine (C16:0, C16:0), treatment ratio versus control / Phosphatidylcholine (C16:0, C18:2), treatment ratio versus control / Phosphatidylcholine (C16:0, C20:5), treatment ratio versus control / Phosphatidylcholine (C16:1, C18:2), treatment ratio versus control / Phosphatidylcholine (C18:0, C18:1), treatment ratio versus control / Phosphatidylcholine (C18:1, C18:2), treatment ratio versus control / gamma-Linolenic acid (C18:cis[6,9,12]3), treatment ratio versus control: Table 4a inhibition of weak acid excretion; for Arginine, treatment ratio versus control / Indole-3-lactic acid, treatment ratio versus control / Ketoleucine, treatment ratio versus control / Proline, treatment ratio versus control / Tryptophan, treatment ratio versus control / trans-4-Hydroxyproline, treatment ratio versus control: Table 4b inhibition of weak acid excretion; for Cytosine, treatment ratio versus control / Glutamate, treatment ratio versus control: Table 6b ACE inhibitor induced like toxicity", "note": "Marks after values point to notes of the source that are not given here."}
{"smiles": "Oc1c(Cl)c(Cl)c(Cl)c(Cl)c1Cl", "note": "[Pentachlorophenol]", "values": [{"measurement": "Glycerol, lipid fraction, treatment ratio versus control", "setting": "day 7, high dose", "result": "1.56 *"}, {"measurement": "Linoleic acid (C18:cis[9,12]2), treatment ratio versus control", "setting": "day 7, high dose", "result": "1.35 *"}, {"measurement": "Lysophosphatidylcholine (C18:2), treatment ratio versus control", "setting": "day 7, high dose", "result": "1.32 *"}, {"measurement": "Phosphatidylcholine (C16:0, C16:0), treatment ratio versus control", "setting": "day 7, high dose", "result": "1.04^"}, {"measurement": "Phosphatidylcholine (C16:0, C18:2), treatment ratio versus control", "setting": "day 7, high dose", "result": "1.02^"}, {"measurement": "Phosphatidylcholine (C16:0, C20:5), treatment ratio versus control", "setting": "day 7, high dose", "result": "1.05 *"}, {"measurement": "Phosphatidylcholine (C16:1, C18:2), treatment ratio versus control", "setting": "day 7, high dose", "result": "0.87^"}, {"measurement": "Phosphatidylcholine (C18:0, C18:1), treatment ratio versus control", "setting": "day 7, high dose", "result": "0.98^"}, {"measurement": "Phosphatidylcholine (C18:1, C18:2), treatment ratio versus control", "setting": "day 7, high dose", "result": "0.85^"}, {"measurement": "gamma-Linolenic acid (C18:cis[6,9,12]3), treatment ratio versus control", "setting": "day 7, high dose", "result": "0.78 *"}, {"measurement": "Arginine, treatment ratio versus control", "setting": "day 7, high dose", "result": "0.56 *"}, {"measurement": "Indole-3-lactic acid, treatment ratio versus control", "setting": "day 7, high dose", "result": "0.62 *"}, {"measurement": "Ketoleucine, treatment ratio versus control", "setting": "day 7, high dose", "result": "0.6 *"}, {"measurement": "Proline, treatment ratio versus control", "setting": "day 7, high dose", "result": "0.73 *"}, {"measurement": "Tryptophan, treatment ratio versus control", "setting": "day 7, high dose", "result": "0.6 *"}, {"measurement": "trans-4-Hydroxyproline, treatment ratio versus control", "setting": "day 7, high dose", "result": "0.87 *"}, {"measurement": "Glycerol, lipid fraction, treatment ratio versus control", "setting": "day 14, high dose", "result": "2.38 *"}, {"measurement": "Linoleic acid (C18:cis[9,12]2), treatment ratio versus control", "setting": "day 14, high dose", "result": "1.8 *"}, {"measurement": "Lysophosphatidylcholine (C18:2), treatment ratio versus control", "setting": "day 14, high dose", "result": "1.41 *"}, {"measurement": "Phosphatidylcholine (C16:0, C16:0), treatment ratio versus control", "setting": "day 14, high dose", "result": "1.25 *"}, {"measurement": "Phosphatidylcholine (C16:0, C18:2), treatment ratio versus control", "setting": "day 14, high dose", "result": "1.34 *"}, {"measurement": "Phosphatidylcholine (C16:0, C20:5), treatment ratio versus control", "setting": "day 14, high dose", "result": "1.57 *"}, {"measurement": "Phosphatidylcholine (C16:1, C18:2), treatment ratio versus control", "setting": "day 14, high dose", "result": "1.32 *"}, {"measurement": "Phosphatidylcholine (C18:0, C18:1), treatment ratio versus control", "setting": "day 14, high dose", "result": "1.54 *"}, {"measurement": "Phosphatidylcholine (C18:1, C18:2), treatment ratio versus control", "setting": "day 14, high dose", "result": "1.4 *"}, {"measurement": "gamma-Linolenic acid (C18:cis[6,9,12]3), treatment ratio versus control", "setting": "day 14, high dose", "result": "1.81^"}, {"measurement": "Arginine, treatment ratio versus control", "setting": "day 14, high dose", "result": "0.72^"}, {"measurement": "Indole-3-lactic acid, treatment ratio versus control", "setting": "day 14, high dose", "result": "0.65 *"}, {"measurement": "Ketoleucine, treatment ratio versus control", "setting": "day 14, high dose", "result": "0.64 *"}, {"measurement": "Proline, treatment ratio versus control", "setting": "day 14, high dose", "result": "0.74 *"}, {"measurement": "Tryptophan, treatment ratio versus control", "setting": "day 14, high dose", "result": "0.62 *"}, {"measurement": "trans-4-Hydroxyproline, treatment ratio versus control", "setting": "day 14, high dose", "result": "0.92^"}, {"measurement": "Glycerol, lipid fraction, treatment ratio versus control", "setting": "day 28, high dose", "result": "1.61 *"}, {"measurement": "Linoleic acid (C18:cis[9,12]2), treatment ratio versus control", "setting": "day 28, high dose", "result": "1.73 *"}, {"measurement": "Lysophosphatidylcholine (C18:2), treatment ratio versus control", "setting": "day 28, high dose", "result": "1.66 *"}, {"measurement": "Phosphatidylcholine (C16:0, C16:0), treatment ratio versus control", "setting": "day 28, high dose", "result": "1.1 *"}, {"measurement": "Phosphatidylcholine (C16:0, C18:2), treatment ratio versus control", "setting": "day 28, high dose", "result": "1.49 *"}, {"measurement": "Phosphatidylcholine (C16:0, C20:5), treatment ratio versus control", "setting": "day 28, high dose", "result": "1.67 *"}, {"measurement": "Phosphatidylcholine (C16:1, C18:2), treatment ratio versus control", "setting": "day 28, high dose", "result": "1.54 *"}, {"measurement": "Phosphatidylcholine (C18:0, C18:1), treatment ratio versus control", "setting": "day 28, high dose", "result": "1.41 *"}, {"measurement": "Phosphatidylcholine (C18:1, C18:2), treatment ratio versus control", "setting": "day 28, high dose", "result": "1.3 *"}, {"measurement": "gamma-Linolenic acid (C18:cis[6,9,12]3), treatment ratio versus control", "setting": "day 28, high dose", "result": "3.23 *"}, {"measurement": "Arginine, treatment ratio versus control", "setting": "day 28, high dose", "result": "0.44 *"}, {"measurement": "Indole-3-lactic acid, treatment ratio versus control", "setting": "day 28, high dose", "result": "0.49 *"}, {"measurement": "Ketoleucine, treatment ratio versus control", "setting": "day 28, high dose", "result": "0.6 *"}, {"measurement": "Proline, treatment ratio versus control", "setting": "day 28, high dose", "result": "0.74 *"}, {"measurement": "Tryptophan, treatment ratio versus control", "setting": "day 28, high dose", "result": "0.54 *"}, {"measurement": "trans-4-Hydroxyproline, treatment ratio versus control", "setting": "day 28, high dose", "result": "0.94 *"}]}
{"smiles": "CCOC(=O)[C@H](CCc1ccccc1)N[C@@H](C)C(=O)N1[C@H](C(=O)O)C[C@@H]2CCC[C@@H]21", "note": "[Ramipril]", "values": [{"measurement": "Cytosine, treatment ratio versus control", "setting": "male rats, day 7, high dose", "result": "0.7 *"}, {"measurement": "Glutamate, treatment ratio versus control", "setting": "male rats, day 7, high dose", "result": "0.92 *"}, {"measurement": "Glycine, treatment ratio versus control", "setting": "male rats, day 14, high dose, Table 6a ACE inhibitor induced like toxicity", "result": "1.5 *"}, {"measurement": "Cytosine, treatment ratio versus control", "setting": "male rats, day 14, high dose", "result": "0.85 *"}, {"measurement": "Glutamate, treatment ratio versus control", "setting": "male rats, day 14, high dose", "result": "0.71 *"}, {"measurement": "Cytosine, treatment ratio versus control", "setting": "male rats, day 28, high dose", "result": "0.91^"}, {"measurement": "Glutamate, treatment ratio versus control", "setting": "male rats, day 28, high dose", "result": "0.61 *"}]}
